{
  "source": "patent US20160367659A1",
  "about": "“VIRAL PEPTIDES” (EQUIGERMINAL SA, priority 2013, published 2016)",
  "key": {"[1]": {"test_system": "protease activity of NEV fractions", "assay": "In vitro protease cleavage activity of NEV viral protein fractions (fluorescence assay)", "format": "biochemical", "settings": "inhibitor 10 μM; Phe-Phe substrate pH 3 and 4, HIV substrate 1 pH 5; fractions 12, 15 and 16", "experimental": "To assess for in vitro proteolytic cleavage activity, cell infections were performed in serum free media conditions. Day 5-7 p.i. viral particles were concentrated and extensively washed with HBSS in Vivaspin 100 kDa (Sartorius) columns. Concentrated viral particles were lysed in 0.1% SDS and submitted to analytical size-exclusion chromatography on a Superdex 200 5/150 GL (GE Healthcare Life Sciences) column connected to a Prominence HPLC system (Shimadzu Corporation, Tokyo, Japan). The column was equilibrated in 20 mM phosphate buffer pH 7.5 containing 150 mM NaCl.\nThe protease activity was determined by fluorescence assays in 96-well plates in a Gemini EM Fluorescence Microplate Reader, using the HIV Protease Substrate 1 Arg-Glu(EDANS)-Ser-Gln-Asn-Tyr-Pro-Ile-Val-Gln-Lys(DABCYL)-Arg (Sigma Aldrich) or the Phe-Phe substrate. For determination of the pH profile, viral particles were assayed for activity at 37° C. in buffers ranging between pH 3 and 6 (50 mM sodium acetate pH 3.0, 4.0, 5.0, and 6.0; 50 mM Tris-HCl […]) containing 100 mM NaCl. To test the specificity of enzymatic cleavage, Indinavir (Sigma Aldrich), a specific inhibitors of HIV protease, or pepstatin were used. The protease was pre-incubated in the presence of the inhibitor. […] The rate of substrate hydrolysis was monitored for 3 hours by the increase of intensity with excitation/emission wavelengths of 328/393 nm."}, "mab#4G6E4": {"test_system": "mab#4G6E4", "assay": "ELISA dose response of mab#4G6E4 on peptide-coated wells", "format": "binding, Mouse", "experimental": "For that, serial dilutions of peptides in duplicates (1:1.3 or 1:1.4 in 0.05M carbonate buffer pH=9.3) ranging between 5 to 500 ng/mL were covalently linked to 96 microwell Poylsorp amino plates (Nunc, Thermofisher) for two hours at room temperature. To remove unbound peptide, plates were washed three times with PBS-Tween20 (0.005%) in an automated Wellwasher apparatus (Thermoscientific). After washing, plates were blocked by adding 300 microliters/well of Superblock T20 in PBS (Thermoscientific, Pierce). Superblock T20 was immediately removed and plates inverted till drying out. After blocked and dried plates were ready for c-ELISA or to be stored at 4-8° C. for further testing. […]\nA rapid (2 hours) c-ELISA procedure was performed as follows: 70 ng/mL of mab#4G6E4 alone (50 microliters) diluted in dilution buffer was added to peptide-coated wells and incubated for 1 hour at 37° C. After 1 hour of incubation plates were extensively washed with 300 microliters of PBS-Tween20 (0.05%) for three times. The plate was after that incubated with a secondary goat anti-mouse IgG-HRP (Sigma Aldrich) at 1:2500 dilution and incubated for 30 minutes at 37° C. Plates were washed again four times with 300 microliters of PBS-Tween20 (0.05%) and signal developed by adding 50 microliters of fresh TMB reagent (Sigma Aldrich) for 15 minutes at room temperature. After colour development the reaction was stopped by adding 50 microliters of 1N H2SO4 (Sigma Aldrich). Determination of absorbance was obtained by reading plates at 450 nm in a Multiskan Go ELISA reader (Thermoscientific).\nDose responses curves were analysed by GraphPad Prism 6.0 software by using the four parameter function log(agonist) vs response with a variable slope. […] The Hill slope was very high for both peptides 7.2 for SEQ ID NO: 159 and 6.6 for SEQ ID NO: 20. The results are indicating high affinity between the mab and the peptide sequences (FIG. 6A1).\nFurthermore dose response curves were optimized in order to decrease the Hill Slope and turn the assay more sensitive. […]"}, "[2]": {"settings": "70 ng/mL mab#4G6E4 diluted in 3% BSA, peptide 5 to 500 ng/mL, four parameter fit"}},
  "note": "Where a SMILES comes first, the peptide text is derived from it. [ ]: non-standard residue; d: D form. The star is where a group is joined. Sta = CC(C)C[C@H](N)[C@@H](O)CC(=O)O; Isovaleryl = CC(C)CC(=O)*",
  "data": [
    {"compound": "CC(C)(C)NC(=O)[C@@H]1CN(Cc2cccnc2)CCN1C[C@@H](O)C[C@@H](Cc1ccccc1)C(=O)N[C@H]1c2ccccc2C[C@H]1O", "note": "[Indinavir]", "values": [
      {"measurement": "inhibition of the protease activity of NEV fractions", "setting": "[1]", "value": "able to inhibit"}
    ]},
    {"compound": "CC(C)CC(=O)N[C@H](C(=O)N[C@H](C(=O)N[C@@H](CC(C)C)[C@@H](O)CC(=O)N[C@@H](C)C(=O)N[C@@H](CC(C)C)[C@@H](O)CC(=O)O)C(C)C)C(C)C", "note": "[pepstatin] (Isovaleryl-VV[Sta]A[Sta]-OH)", "values": [
      {"measurement": "inhibition of the protease activity of NEV fractions", "setting": "[1]", "value": "able to inhibit"}
    ]},
    {"compound": "QEQNPPPSVSLRSLFGNDPL [SEQ ID NO: 20]", "values": [
      {"measurement": "EC50", "setting": "mab#4G6E4; [2]", "value": 0.1937, "unit": "µg/mL"}
    ]},
    {"compound": "EALDKIEEIQNKNKQKAAAQEQNPPPSVSLRSLFG [SEQ ID NO: 159]", "values": [
      {"measurement": "EC50", "setting": "mab#4G6E4; [2]", "value": 0.1635, "unit": "µg/mL"},
      {"measurement": "EC50", "setting": "mab#4G6E4; mab#4G6E4 (70 ng/mL) in 0.025% casein blocking instead of 3% BSA", "value": 0.059, "unit": "µg/mL"}
    ]}
  ]
}
